The source of these data is ChEMBL document CHEMBL1201862, “PubChem BioAssay data set” (2004).

SMILES strings stand for the structures.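 Cells were grown in 96-well plates and exposed to each compound for 48 hours at five concentrations; endpoints were interpolated linearly between bracketing concentrations, or set to the highest concentration if not reached. Abbreviation: GI50, concentration required for 50% inhibition of growth.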 The source made the active and inactive calls. Rule as the data show it: active = GI50 up to about 1.1 µM and inactive = higher. A value given as a limit tells only on which side of the number the result lay.

Test systems include OVCAR-4; LOX IMVI; ACHN; NCI-H460; SNB-75; COLO 205; IGROV-1; RPMI-8226; SF-295; DU-145; T47D; 786-0; MDA-MB-435; HOP-92; MOLT-4; OVCAR-5; NCI-H23; K562; HOP-62; Malme-3M.
What all share (test): NCI-60 cell line screen, 48 h

For the molecule `CCOC(=O)N1C(=S)C(C(=O)OC)(C(=O)OC)N=C1C`, the GI50 in the test on OVCAR-4, in the test on LOX IMVI, with ACHN, in the test on NCI-H460, in the test on SNB-75 and in the test with COLO 205 was > 100 µM (inactive) in each case. In addition, the GI50 with IGROV-1, in the test with RPMI-8226, in the test on SF-295, in the test with DU-145, with T47D and with 786-0 was > 100 µM (inactive) throughout. Further, the GI50 with MDA-MB-435, in the test with HOP-92, in the test on MOLT-4, with OVCAR-5, in the test on NCI-H23 and with K562 was > 100 µM (inactive) each time. The GI50 with HOP-62 is > 100 µM (inactive).

As to `O=C1NC(=O)[C@H]2C3C=CC([C@@H]12)[C@@H]1C(=O)NC(=O)[C@H]31`, the GI50 in the test with LOX IMVI, in the test with ACHN, in the test on NCI-H460, with Malme-3M, in the test on COLO 205 and in the test on IGROV-1 was > 100 µM (inactive) throughout. In addition, the GI50 with RPMI-8226, with SF-295, with DU-145, with T47D, in the test on 786-0 and in the test with MDA-MB-435 was > 100 µM (inactive) each time. The GI50 in the test with HOP-92, in the test with MOLT-4, in the test on OVCAR-5, with NCI-H23, with K562 and in the test on HOP-62 was > 100 µM (inactive) throughout.

Take `N#CC(C#N)=Cc1ccc(C=C2SC3=C(SCCS3)S2)s1`: the GI50 in the test on OVCAR-4 was 9.68 µM (inactive); in the test with ACHN, > 100 µM (inactive); in the test on NCI-H460, 7.59 µM (inactive); in the test with Malme-3M, > 100 µM (inactive); in the test on SNB-75 it was 16.7 µM (inactive); with COLO 205, 8.73 µM (inactive). Besides, the GI50 was 4.52 µM (inactive) in the test with IGROV-1; 0.881 µM (active) in the test on RPMI-8226; 24.4 µM (inactive) in the test on SF-295; > 100 µM (inactive) with DU-145; > 100 µM (inactive) in the test with T47D; 13.4 µM (inactive) with 786-0. Besides, the GI50 in the test on MDA-MB-435 is 0.82 µM (active); with HOP-92, 17.6 µM (inactive); in the test with MOLT-4 it was 2.59 µM (inactive); with OVCAR-5, 3.72 µM (inactive); in the test on NCI-H23, 6.68 µM (inactive); in the test on HOP-62, 80.9 µM (inactive).

For the molecule `O=C(O)c1cc2ccccc2c(/N=N/c2ccc(S(=O)(=O)O)cc2)c1O`, the GI50 with OVCAR-4, in the test on ACHN, with NCI-H460, in the test with Malme-3M, in the test on SNB-75 and with COLO 205 was > 100 µM (inactive) each time. Also, the GI50 in the test with IGROV-1, in the test with RPMI-8226, in the test on SF-295, with DU-145, in the test with T47D and in the test on 786-0 was > 100 µM (inactive) throughout. Moreover, the GI50 in the test on MDA-MB-435, in the test on HOP-92, in the test on MOLT-4, in the test on OVCAR-5, with K562 and in the test on HOP-62 was > 100 µM (inactive) each time.

In the case of `CC(=O)OC12c3ccccc3-c3ccccc3C1C(C(=O)O)C2C(=O)O` (stereo unspecified), the GI50 in the test with OVCAR-4 was > 10 µM (inactive); in the test on LOX IMVI, > 10 µM (inactive); in the test with ACHN, > 10 µM (inactive); in the test on NCI-H460, > 10 µM (inactive); with Malme-3M it was 1.2 µM (inactive); in the test with COLO 205, > 10 µM (inactive). Moreover, the GI50 with IGROV-1, with RPMI-8226, with SF-295, with DU-145, in the test on T47D and in the test with 786-0 was > 10 µM (inactive) throughout. Also, the GI50 is 3.52 µM (inactive) in the test with MDA-MB-435; > 10 µM (inactive) in the test on HOP-92; > 10 µM (inactive) in the test with MOLT-4; > 10 µM (inactive) in the test on OVCAR-5; > 10 µM (inactive) in the test on NCI-H23; > 10 µM (inactive) with K562. Besides, the GI50 with HOP-62 is > 10 µM (inactive).

As to `O=C1O/C(=C\c2ccc(O)c(Br)c2)C(c2ccc(O)c(Cl)c2)=C1Br`, the GI50 in the test with OVCAR-4 was 11.5 µM (inactive); with LOX IMVI, 44.6 µM (inactive); with ACHN, 15.2 µM (inactive); in the test on NCI-H460, 17.1 µM (inactive); in the test on Malme-3M it was 17.9 µM (inactive); in the test on COLO 205, 18.1 µM (inactive). Moreover, the GI50 is 21.9 µM (inactive) in the test with IGROV-1; 13.2 µM (inactive) with RPMI-8226; 16.1 µM (inactive) in the test on SF-295; 18.8 µM (inactive) in the test on DU-145; 19 µM (inactive) in the test on T47D; 16.3 µM (inactive) with 786-0. In addition, the GI50 with MDA-MB-435 is 16 µM (inactive); in the test with HOP-92 it was 15.4 µM (inactive); in the test with MOLT-4 it was 16.6 µM (inactive); in the test with OVCAR-5, 18.6 µM (inactive); in the test on NCI-H23, 17.3 µM (inactive); with K562 it was 17.3 µM (inactive). In addition, the GI50 in the test with HOP-62 is 19.9 µM (inactive).

As to `CN(C)CCCNC(=O)c1cc(NC(=O)c2cc(NC(=O)c3cc(NC(=O)CCCn4ccc(CO)c4CO)cn3C)cn2C)cn1C`, the GI50 is 19.5 µM (inactive) in the test on OVCAR-4; 4.28 µM (inactive) with LOX IMVI; 15.8 µM (inactive) with ACHN; 12.5 µM (inactive) in the test with NCI-H460; 14.5 µM (inactive) in the test on Malme-3M; 5.01 µM (inactive) in the test with SNB-75. For the same molecule, the GI50 in the test with COLO 205 was 11.2 µM (inactive); in the test on IGROV-1, 3.2 µM (inactive); in the test on DU-145, 3.94 µM (inactive); in the test on T47D, 6.85 µM (inactive); in the test with 786-0, 4.2 µM (inactive); in the test on MDA-MB-435 it was 11.1 µM (inactive). Further, the GI50 was 13 µM (inactive) in the test with HOP-92; 4.74 µM (inactive) with MOLT-4; 3.99 µM (inactive) in the test on OVCAR-5; 13.8 µM (inactive) in the test on NCI-H23; 3.78 µM (inactive) with K562.

As to `Cc1ccc(S(=O)(=O)n2cc(C=O)c(-c3cn(S(=O)(=O)c4ccc(C)cc4)cc3-c3cn(S(=O)(=O)c4ccc(C)cc4)cc3C=O)c2)cc1`, the GI50 with LOX IMVI was 21.9 µM (inactive); in the test with NCI-H460, 29.2 µM (inactive); in the test with Malme-3M it was 24.3 µM (inactive); with SNB-75 it was 29.6 µM (inactive); in the test on COLO 205, 75.2 µM (inactive); in the test with IGROV-1, 53.8 µM (inactive). The GI50 in the test with RPMI-8226 is 8.36 µM (inactive); in the test with SF-295, 42.9 µM (inactive); in the test with DU-145 it was 69.3 µM (inactive); in the test with T47D it was 28 µM (inactive); with 786-0, 35.8 µM (inactive); with MDA-MB-435, 44.8 µM (inactive). Moreover, the GI50 in the test on HOP-92 is 45.4 µM (inactive); with MOLT-4 it was 12.8 µM (inactive); in the test with OVCAR-5, 85.3 µM (inactive); in the test with NCI-H23, 23.7 µM (inactive); in the test on K562, 24.3 µM (inactive); in the test with HOP-62, > 100 µM (inactive).

As for `COC(=O)c1ccc(NC(=O)c2cc3c(cc2Br)OCO3)o1`, the GI50 in the test with OVCAR-4, in the test with LOX IMVI, in the test with ACHN, in the test on COLO 205, with IGROV-1 and in the test on RPMI-8226 was > 100 µM (inactive) each time. Further, the GI50 was > 100 µM (inactive) in the test with SF-295; > 100 µM (inactive) with DU-145; 90.6 µM (inactive) with T47D; > 100 µM (inactive) in the test on 786-0; 32.7 µM (inactive) in the test on MDA-MB-435; 26.5 µM (inactive) in the test on HOP-92. Besides, the GI50 was 95.7 µM (inactive) in the test on MOLT-4; > 100 µM (inactive) in the test on OVCAR-5; > 100 µM (inactive) with NCI-H23; 63.2 µM (inactive) with K562; > 100 µM (inactive) in the test on HOP-62.

In the case of `CCOC(=O)CC(N1CC1)N1CC1`, the GI50 with OVCAR-4, with LOX IMVI, with ACHN, in the test on NCI-H460, in the test on Malme-3M and in the test with SNB-75 was > 10 µM (inactive) in each case. The GI50 in the test on COLO 205, in the test with IGROV-1, in the test with RPMI-8226, in the test with SF-295, in the test with DU-145 and in the test on T47D was > 10 µM (inactive) each time. The GI50 in the test on 786-0, with MDA-MB-435, in the test with MOLT-4, with OVCAR-5, in the test with NCI-H23 and in the test on K562 was > 10 µM (inactive) throughout. Further, the GI50 with HOP-62 is > 10 µM (inactive).

In the case of `CN(C)c1ccc(/N=N/c2ccncc2)cc1`, the GI50 was 48.1 µM (inactive) with OVCAR-4; 93.1 µM (inactive) in the test with LOX IMVI; > 100 µM (inactive) in the test on ACHN; > 100 µM (inactive) with NCI-H460; > 100 µM (inactive) in the test on Malme-3M; 56.6 µM (inactive) in the test with COLO 205. The GI50 with IGROV-1 was > 100 µM (inactive); in the test with RPMI-8226 it was 47.1 µM (inactive); in the test on SF-295, > 100 µM (inactive); with DU-145 it was > 100 µM (inactive); with T47D, > 100 µM (inactive); in the test with 786-0 it was > 100 µM (inactive). The GI50 is 28.8 µM (inactive) in the test on MDA-MB-435; 17.6 µM (inactive) with HOP-92; 39.8 µM (inactive) with MOLT-4; > 100 µM (inactive) in the test with OVCAR-5; > 100 µM (inactive) with NCI-H23; 43.5 µM (inactive) with K562. Besides, the GI50 with HOP-62 was > 100 µM (inactive).
